For 29 compounds, IC50 results are on record in patent US5594022A, “Tachykinin antagonists” (Warner-Lambert Company, priority 1994, dated 1997).

The target in the first assay is T1, NK1 receptor (Cavia porcellus, UniProt P30547).
T1 construct: guinea pig cerebral cortex membranes; from tissue; host or cells: guinea pig cerebral cortex membranes
T1 sequence (P30547 whole entry): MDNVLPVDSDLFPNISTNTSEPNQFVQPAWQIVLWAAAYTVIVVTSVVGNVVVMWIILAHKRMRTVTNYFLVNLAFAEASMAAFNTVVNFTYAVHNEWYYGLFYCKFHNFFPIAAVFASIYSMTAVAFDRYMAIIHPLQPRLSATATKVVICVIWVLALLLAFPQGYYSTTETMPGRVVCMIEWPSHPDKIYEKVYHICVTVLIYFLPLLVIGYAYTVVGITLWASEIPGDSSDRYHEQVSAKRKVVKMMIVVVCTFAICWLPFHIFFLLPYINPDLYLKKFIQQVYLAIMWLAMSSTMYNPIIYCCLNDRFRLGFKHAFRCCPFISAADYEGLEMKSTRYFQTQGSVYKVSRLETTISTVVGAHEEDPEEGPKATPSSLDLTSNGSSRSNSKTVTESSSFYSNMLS
Put plainly: In vitro NK1 receptor binding ([125I] Bolton Hunter Substance-P, guinea pig cerebral cortex membranes). The settings on record: Binding IC50, In Vitro NK1 Receptor Binding, [125I-BH]Substance-P 0.1 nM. The method, then:
The compounds of the invention were also evaluated in three tachykinin binding assays.
Regarding `C[C@H](NC(=O)[C@](C)(Cc1c[nH]c2ccccc12)NC(=O)OCc1ccccc1)c1ccccc1` [Example 16], the IC50 was found to be 702 nM.

The same assay, now with this note: [125I-BH]Substance-P 0.1 nM, read-out: Binding IC50, In Vitro NK1 Receptor Binding.
Take `CN(C(=O)OCc1ccccc1)[C@@H](Cc1c[nH]c2ccccc12)C(=O)NCc1ccccc1` [Example 23]: the half-inhibitory concentration (IC50) was 168 nM. Take `Cc1ccc(C(C)NC(=O)[C@@](C)(Cc2c[nH]c3ccccc23)NC(=O)OCc2ccccc2)cc1` (single isomer, unassigned) [Example 37, Phenylmethyl [1-(1H-indol-3-ylmethyl)-1-methyl-2-[[1-(4-methylphenyl)ethyl]amino]-2-oxoethyl]carbamate]: the half-maximal inhibitory concentration (IC50) came to 290 nM. The same measure, in the same setting: the value for `C[C@H](NC(=O)[C@@H](Cc1c[nH]c2ccccc12)NC(=O)OCc1ccccc1)c1ccccc1` [Example 6] was 75 nM. The same measure, in the same setting: the value for `Cc1ccc(C(C)NC(=O)[C@@](C)(Cc2c[nH]c3ccccc23)NC(=O)OCc2ccccc2)cc1` (single isomer, unassigned) [Example 36, Phenylmethyl [1-(1H-indol-3-ylmethyl)-1-methyl-2-[[1-(4-methylphenyl)ethyl]amino]-2-oxoethyl]carbamate] was 70 nM. The same measure, in the same setting: the value for `C[C@H](NC(=O)[C@@](C)(Cc1c[nH]c2ccccc12)NC(=O)OC1Cc2ccccc2C1)c1ccccc1` [Example 46, 2,3-Dihydro-1H-inden-2-yl [1-(1H-indol-3-ylmethyl) -1-methyl-2-oxo-2-[(1-phenylethyl)amino]ethyl]carbamate] was 110 nM; that for `C[C@H](NC(=O)[C@@](C)(Cc1c[nH]c2ccccc12)NC(=O)OCc1ccco1)c1ccccc1` (relative stereo) [Example 49, 2-Furanylmethyl [R,(R*,S*)]-[1-(1H-indol-3-ylmethyl) -1-methyl-2-oxo-2-[(1-phenylethyl)amino]ethyl]carbamate] was 120 nM. With `C[C@H](NC(=O)C(Cc1n[nH]c2ccccc12)NC(=O)OCc1ccccc1)c1ccccc1` (stereo partly drawn) [Example 55, Phenylmethyl [R-(R*,S*)]and [S-(R*,R*)]-[1-(1H -indazol-3-ylmethyl-)-2-oxo-2-[(1-phenylethyl)amino]ethyl]carbamate], the IC50 is greater than 1000 nM. On the same count and under the same terms, for `C[C@H](NC(=O)[C@@](C)(Cc1c[nH]c2ccccc12)NC(=O)OCc1cccs1)c1ccccc1` [Example 43, 2-Thienylmethyl [R-(R*,S*)]-[1-(1H-indol-3-ylmethyl) -1-methyl-2-oxo-[(1-phenylethyl)amino]ethyl]carbamate] the value was 100 nM. Same read-out and setting: for `CC(NC(=O)[C@@](C)(Cc1c[nH]c2ccccc12)NC(=O)OCc1ccccc1)c1cc(C(F)(F)F)cc(C(F)(F)F)c1` (mixture of isomers) [Example 39, Phenylmethyl (R,RS)-[2-[[1-[3,5-bis(trifluoromethyl) -phenyl]ethyl]amino]-1-(1H-indol-3-ylmethyl)-1-methyl-2-oxoethyl]carbamate] the value was 10000 nM. For `C[C@H](NC(=O)[C@@H](Cc1ccc2ccccc2c1)NC(=O)OCc1ccccc1)c1ccccc1` [Example 58], the IC50 worked out at 1700 nM. On the same count and under the same terms, the value for `C[C@H](NC(=O)[C@@](C)(Cc1c[nH]c2ccccc12)NC(=O)OCc1ccoc1)c1ccccc1` [Example 48, 3- Furanylmethyl [R-(R*,S*)]-[1-(1H-indol-3-ylmethyl) -1-methyl-2-oxo-2-[(1-phenylethyl)amino]ethyl]carbamate] was 230 nM.

In the case of `COc1ccc(C(C)NC(=O)[C@@](C)(Cc2c[nH]c3ccccc23)NC(=O)OCc2ccccc2)cc1` (stereo partly drawn) [Example 40, Phenylmethyl (R,RS)-[1-(1H, indole-3-ylmethyl)-2-[[1-(4-methoxyphenyl)ethyl]amino]-1-methyl-2-oxoethyl]carbamate], the 50% inhibitory concentration (IC50) was 210 nM. As to `C[C@H](NC(=O)C(Cc1c[nH]c2ccc(F)cc12)NC(=O)OCc1ccccc1)c1ccccc1` (stereo partly drawn) [Example 56, Phenylmethyl [R-(R*,S*)]and [S-(R*,R*)]-[1-[(5-fluoro-1H-indol-3-yl)methyl]-2-oxo-2-[(1-phenylethyl)amino]ethyl]carbamate], the IC50 was 3200 nM. On to `C[C@H](NC(=O)[C@@](C)(Cc1c[nH]c2ccccc12)NC(=O)OCc1cccc(F)c1F)c1ccccc1` [Example 52, (2,3-Difluorophenyl) methyl [R-(R*,S*)]-[(1H-indol-3-methyl)-1-methyl-2-oxo-[(1-phenylethyl)amino]ethyl]carbamate], for which the half-inhibitory concentration (IC50) worked out at 49 nM.

As to `C[C@H](NC(=O)[C@@](C)(Cc1c[nH]c2ccccc12)NC(=O)OCc1ccc(F)cc1)c1ccccc1` [Example 51, (4-Fluorophenyl) methyl [R-(R*,S*)]-[1-(1H-indol-3-ylmethyl)-1-methyl-2-oxo-2-[(1-phenylethyl)amino]ethyl]carbamate], the IC50 stood at 230 nM. The same measure, in the same setting: for `C[C@H](NC(=O)[C@@](C)(Cc1c[nH]c2ccccc12)NC(=O)OCc1ccncc1)c1ccccc1` [Example 41] the value was greater than 10000 nM. Turning to `CN(C(=O)OCc1ccc(Cl)cc1)[C@@H](Cc1c[nH]c2ccccc12)C(=O)NCc1ccccc1` [Example 29], the IC50 turned out to be 487 nM. Still for that read-out and setting: for `CC(NC(=O)C(C)(Cc1c[nH]c2ccccc12)NC(=O)OCc1ccccc1)C1CCCCC1` (stereo not drawn) [Example 38, Phenylmethyl [R-(R*,R*)]-(2-[(1-cyclohexyethyl)amino]-1-(1H-indol-3-ylmethyl)-1-methyl-2-oxoethyl]carbamate] the value was 100 nM; for `C[C@H](NC(=O)[C@@](C)(Cc1c[nH]c2ccccc12)NC(=O)OC1CCc2ccccc21)c1ccccc1` (stereo partly drawn) [Example 44, 2,3-Dihydro-1H-inden-3-yl [R-(R*,S*)]-[1(1H-indol-3-ylmethyl)-1-methyl-2-oxo-2-[(phenylethyl)amino]ethyl]carbamate], 110 nM. Same read-out and setting: for `CN(Cc1ccccc1)C(=O)[C@H](Cc1c[nH]c2ccccc12)NC(=O)OCc1ccccc1` [Example 3] the value was 218 nM. With `CC(NC(=O)C(Cc1cn(C)c2ccccc12)NC(=O)OCc1ccccc1)c1ccccc1` (centres unmarked) [Example 57, Phenylmethyl [1-(1-methyl-1H-indol-3-ylmethyl]-2-pxp-2-[(1-phenylethyl)amino]ethyl]carbamate], the half-maximal inhibitory concentration (IC50) worked out at 3400 nM. The same measure, in the same setting: for `C[C@H](NC(=O)[C@H](Cc1c[nH]c2ccccc12)NC(=O)OCc1ccccc1)c1ccccc1` [Example 7] the value was 306 nM.

`C[C@H](NC(=O)C(C)(Cc1csc2ccccc12)NC(=O)OCc1ccccc1)c1ccccc1` (some centres unmarked) [Example 60, Phenylmethyl [1-(benzo[b]thien-3-ylmethyl)-1-methyl-2-oxo-2-[(1-phenylethyl)amino]ethyl]carbamate]: the half-maximal inhibitory concentration (IC50) was greater than 1000 nM. Same read-out and setting: the value for `C[C@H](NC(=O)[C@H](Cc1c[nH]c2ccccc12)N(C)C(=O)OCc1ccccc1)c1ccccc1` [Example 24] was 185 nM; that for `C[C@H](NC(=O)[C@@](C)(Cc1c[nH]c2ccccc12)NC(=O)OCc1cccc(F)c1)c1ccccc1` [Example 50, (3-Fluorophenyl) methyl [R-(R*,S*)]-[1-(1H-indol-3-ylmethyl)-1-methyl-2-oxo-2-[(1-phenylethyl)amino]ethyl]carbamate] was 120 nM. For the compound `C[C@@H](NC(=O)[C@H](Cc1c[nH]c2ccccc12)N(C)C(=O)OCc1ccccc1)c1ccccc1` [Example 27], the half-maximal inhibitory concentration (IC50) came out at 306 nM. Same read-out and setting: the value for `CC(NC(=O)C(Cc1c[nH]c2ccccc12)NC(=O)OCc1ccccc1)c1ccccc1` (centres unmarked) [Example 4] was 198 nM; that for `CN(Cc1ccccc1)C(=O)C(Cc1c[nH]c2ccccc12)NC(=O)OCc1ccccc1` (centres unmarked) [Example 1] was 341 nM.

The term IC50 denotes the point on the concentration scale where inhibition reaches its midpoint.
